Among the data in patent US20240246935A1 (Plexium, Inc., priority 2021, published 2024) are DC50 values, retold here.

In the test the target is GSPT1 (Homo sapiens (Human), UniProt P15170+Q96SW2). The test can be described thus: GSPT1 reporter degradation assay (HEK293 hGSPT1 HiBiT-tagged cells). Format: cell-based. As to conditions: 24 hour incubation. Here is the method:
HEK293_hGSPT1_HiBiT-tagged cells were generated using CRISPR-Cas12a technology. Briefly, ˜400,000 HEK293 cells were transiently co-transfected with precomplexed ribonuclear proteins (RNPs) consisting of 80 pmol of crRNA (IDT), 62 pmol of Cas12a protein (IDT), 3 μg of ssODN donor (IDT; AltR® modifications), 78 pmol of electroporation enhancer (IDT), and 200 ng of pMaxGFP (Lonza). The transfection was performed via nucleofection (Lonza, 4D-Nucleofector X-unit) using solution P3 and program CM-130 in a (20 μL) cuvette. Five days post-nucleofection, cells were single-cell-sorted for GFP+(transfected) cells by FACs in 96-well plates and clonally selected. Clones were screened and verified for the desired modification via targeted deep sequencing using gene-specific primers with partial Illumina adapter overhangs as previously described. In brief, clonal cell pellets were harvested, lysed, and used to generate gene-specific amplicons with partial Illumina adapters in PCR #1. Amplicons were indexed in PCR #2 and pooled with other targeted amplicons for other loci to create sequence diversity. Additionally, 10% PhiX sequencing control V3 (Illumina) was added to the pooled amplicon library prior to running the sample on a Miseq Sequencer System (Illumina) to generate paired 2×250 bp reads. Samples were demultiplexed using the index sequences, fastq files were generated, and NGS analysis was performed using CRIS.py. Final clones were authenticated using the PowerPlex fusion system (Promega) and tested negative for mycoplasma by the MycoAlert™Plus mycoplasma detection kit (Lonza).
Editing construct sequences and screening primers are outlined below (sequence from 5′ to 3′). hGSPT1Cas12acrRNA, CAGE635.GSPT1.g1: […] (SEQ ID NO: 4); CAGE635.g1.anti.ssODN: ttcctcacagtattgtgcagggtcatcaagaaaatgctta[…] CAGCCGCTCACgtcCttctctggaaccagtttcagaacttttccaattgcaatggtcttacctagaaatgaaattttaa (HiBiT tag and silent blocking modifications to prevent Cas12a recutting after integration are in upper case) (SEQ ID NO: 5); CAGE635.hGSPT1.DS.F: […] (SEQ ID NO: 6); CAGE635.hGSPT1.DS.R: GTGAA GTAGGCTTCTGCAGTC (SEQ ID NO: 7).
The GSPT1 degradation assay was carried out by harvesting the HEK 293T reporter cell lines and resuspending the cells in media formulated for reduced background fluorescence (FluoroBrite; Thermo Fisher). The respective cell lines were seeded at a density of 8,000 cells/well into white-opaque 384-well optical grade assay tissue culture plates (Greiner 781080-20). The cells were incubated overnight at 37° C. to allow for attachment to the assay plate. Dilutions of the compounds were prepared in DMSO from 10 mM compound stocks. Test compounds were added in a 10-point dilution series (typically 10 μM to […]) using a TECAN D300e Digital Dispenser with an upper limit of 0.5% final DMSO. Plates were centrifuged at 320×g for 2 minutes at room temperature, and subsequently incubated at 37° C.
After 24 hour incubation with the compounds, the plates were allowed to cool to room temperature for 10 minutes. 30 μL of HiBiT lytic buffer+1:50 HiBiT substrate Solution were added to each well. Plates were centrifuged at 320×g for 2 minutes at room temperature and then incubated with shaking at room temperature for 10 minutes covered with foil. Plates were read on a CLARIOstar microplate reader (BMG LabTech), measuring at 450 nm (donor emission) and 610 nm or 630 nm (acceptor emission). The DC50 values were determined by regression to best fit four-parameter logistic curves using GraphPad Prism.
For orientation: HiBiT is a short tag that completes a luciferase, so light tracks the accessible tagged protein.

Chain of GSPT1 (P15170 whole entry): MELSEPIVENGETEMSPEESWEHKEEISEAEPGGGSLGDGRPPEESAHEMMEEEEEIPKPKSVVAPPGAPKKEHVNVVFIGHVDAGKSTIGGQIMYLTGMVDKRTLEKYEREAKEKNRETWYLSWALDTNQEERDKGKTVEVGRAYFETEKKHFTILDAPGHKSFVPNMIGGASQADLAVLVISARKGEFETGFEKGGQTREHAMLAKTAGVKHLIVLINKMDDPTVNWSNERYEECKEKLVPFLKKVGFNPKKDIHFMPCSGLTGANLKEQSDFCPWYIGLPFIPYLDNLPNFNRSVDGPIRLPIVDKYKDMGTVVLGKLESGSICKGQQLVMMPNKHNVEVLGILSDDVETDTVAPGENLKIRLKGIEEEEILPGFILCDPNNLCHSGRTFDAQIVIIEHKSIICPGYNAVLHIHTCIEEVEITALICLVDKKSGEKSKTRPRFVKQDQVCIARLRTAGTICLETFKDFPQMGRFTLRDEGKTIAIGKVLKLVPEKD
Chain of GSPT1 (Q96SW2 whole entry): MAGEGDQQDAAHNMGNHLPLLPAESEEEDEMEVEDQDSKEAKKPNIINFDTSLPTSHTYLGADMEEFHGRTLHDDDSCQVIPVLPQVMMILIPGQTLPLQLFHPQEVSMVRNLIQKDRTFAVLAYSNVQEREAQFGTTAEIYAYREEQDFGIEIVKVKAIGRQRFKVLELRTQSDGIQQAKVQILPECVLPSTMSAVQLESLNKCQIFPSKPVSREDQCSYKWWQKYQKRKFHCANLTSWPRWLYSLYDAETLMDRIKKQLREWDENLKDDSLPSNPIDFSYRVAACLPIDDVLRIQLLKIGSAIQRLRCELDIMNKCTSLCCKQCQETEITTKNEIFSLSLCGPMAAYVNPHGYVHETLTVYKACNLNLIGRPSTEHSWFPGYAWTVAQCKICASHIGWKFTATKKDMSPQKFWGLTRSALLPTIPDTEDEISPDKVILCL
Chain of GSPT1 (Q16531 whole entry partner): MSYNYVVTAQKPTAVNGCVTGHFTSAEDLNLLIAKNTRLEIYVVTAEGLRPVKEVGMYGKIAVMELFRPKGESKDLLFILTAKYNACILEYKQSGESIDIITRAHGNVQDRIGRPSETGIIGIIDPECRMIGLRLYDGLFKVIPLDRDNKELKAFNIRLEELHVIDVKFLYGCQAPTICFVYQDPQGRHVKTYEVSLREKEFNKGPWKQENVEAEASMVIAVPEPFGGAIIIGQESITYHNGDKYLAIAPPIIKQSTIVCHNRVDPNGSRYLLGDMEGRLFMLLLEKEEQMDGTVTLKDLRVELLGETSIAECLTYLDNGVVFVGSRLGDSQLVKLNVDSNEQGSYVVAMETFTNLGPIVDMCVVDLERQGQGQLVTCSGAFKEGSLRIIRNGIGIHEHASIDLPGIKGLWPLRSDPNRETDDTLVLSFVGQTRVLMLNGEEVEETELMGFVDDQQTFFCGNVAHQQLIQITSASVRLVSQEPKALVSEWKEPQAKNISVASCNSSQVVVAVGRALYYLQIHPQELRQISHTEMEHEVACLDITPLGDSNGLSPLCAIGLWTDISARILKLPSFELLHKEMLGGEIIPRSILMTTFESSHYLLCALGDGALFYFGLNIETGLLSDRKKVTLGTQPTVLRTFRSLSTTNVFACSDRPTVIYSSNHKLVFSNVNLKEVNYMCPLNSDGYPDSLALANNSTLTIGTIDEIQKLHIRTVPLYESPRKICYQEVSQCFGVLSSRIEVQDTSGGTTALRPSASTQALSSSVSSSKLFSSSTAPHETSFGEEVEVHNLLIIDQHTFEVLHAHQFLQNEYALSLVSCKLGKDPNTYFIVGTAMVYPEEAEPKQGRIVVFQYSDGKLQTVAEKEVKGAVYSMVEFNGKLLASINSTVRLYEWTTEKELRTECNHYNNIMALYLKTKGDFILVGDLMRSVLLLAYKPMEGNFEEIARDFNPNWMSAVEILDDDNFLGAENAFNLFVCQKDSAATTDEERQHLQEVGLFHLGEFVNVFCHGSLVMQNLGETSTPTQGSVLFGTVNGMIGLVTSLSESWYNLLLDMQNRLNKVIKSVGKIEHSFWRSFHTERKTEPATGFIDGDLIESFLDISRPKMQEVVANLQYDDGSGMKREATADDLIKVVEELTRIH

Usually DC50 stands for the concentration giving 50% degradation. Low values mean a more potent degrader, high ones a less potent degrader. In turn, `O=C1CCC(N2Cc3cc(O[C@H]4CCCCC[C@@H]4N4CC(c5ccccc5)C4)ccc3C2=O)C(=O)N1` (stereo partly drawn) [Compound 131, 3-(1-oxo-5-(((1S,2S)-2-(3-phenylazetidin-1-yl)cycloheptyl)oxy)isoindolin-2-yl)piperidine-2,6-dione] displayed a 50% degradation concentration (DC50) of over 30 µM.

Compound `O=C1CCC(N2Cc3cc(O[C@H]4CCCC[C@@H]4N4CC(c5ccccc5)C4)c(F)cc3C2=O)C(=O)N1` (single isomer, unassigned) [Compound 52] gave a half-maximal degradation concentration (DC50) of over 30 µM.

On to `O=C1CCC(N2Cc3cc(O[C@H]4CCCC[C@@H]4N4CC(c5cccc(OC(F)(F)F)c5)C4)ccc3C2=O)C(=O)N1` (stereo partly drawn) [Compound 35, 3-(1-oxo-5-(((1S,2S)-2-(3-(3-(trifluoromethoxy)phenyl)azetidin-1-yl)cyclohexyl)oxy)isoindolin-2-yl)piperidine-2,6-dione], for which the DC50 is over 30 µM.

In the case of `O=C1CCC(N2Cc3cc(O[C@H]4CCCC[C@@H]4N4CC(c5ccc(N6CCOCC6)cc5)C4)ccc3C2=O)C(=O)N1` (stereo partly drawn) [Compound 124, 3-(5-(((1S,2S)-2-(3-(4-morpholinophenyl)azetidin-1-yl)cyclohexyl)oxy)-1-oxoisoindolin-2-yl)piperidine-2,6-dione], the DC50 is over 30 µM.

`O=C1CCC(N2Cc3cc(O[C@H]4CCCC[C@@H]4N4CC(c5ccccc5OC(F)(F)F)C4)ccc3C2=O)C(=O)N1` (stereo partly drawn) [Compound 36, 3-(1-oxo-5-(((1S,2S)-2-(3-(2-(trifluoromethoxy)phenyl)azetidin-1-yl)cyclohexyl)oxy)isoindolin-2-yl)piperidine-2,6-dione] came in with a 50% degradation concentration (DC50) of over 30 µM.

In turn, `O=C1CC[C@@H](N2Cc3cc(O[C@H]4CCCC[C@@H]4N4CC(c5ccccc5)C4)ccc3C2=O)C(=O)N1` [Compound 125, (R)-3-(1-oxo-5-(((1S,2S)-2-(3-phenylazetidin-1-yl)cyclohexyl)oxy)isoindolin-2-yl)piperidine-2,6-dione] showed a DC50 of over 30 µM.

`O=C1CCC(N2Cc3cc(O[C@H]4CCCC[C@@H]4N4CC(c5ccccc5O)C4)ccc3C2=O)C(=O)N1` (stereo partly drawn) [Compound 133, 3-(5-(((1S,2S)-2-(3-(2-hydroxyphenyl)azetidin-1-yl)cyclohexyl)oxy)-1-oxoisoindolin-2-1)piperidine-2,6-dione] showed a DC50 of over 30 µM.

As to `O=C1CCC(N2Cc3cc(O[C@H]4CCCC[C@@H]4N4CC(c5ccc(O)cc5)C4)ccc3C2=O)C(=O)N1` (stereo partly drawn) [Compound 132, 3-(5-(((1S,2S)-2-(3-(4-hydroxyphenyl)azetidin-1-yl)cyclohexyl)oxy)-1-oxoisoindolin-2-yl)piperidine-2,6-dione], the half-maximal degradation concentration (DC50) was over 30 µM.

`O=C1CCC(N2Cc3cc(O[C@H]4CCCC[C@@H]4N4CC(c5cccc(F)c5F)C4)ccc3C2=O)C(=O)N1` (stereo partly drawn) [Compound 64, 3-(5-(((1S,2S)-2-(3-(2,3-difluorophenyl)azetidin-1-yl)cyclohexyl)oxy)-1-oxoisoindolin-2-yl)piperidine-2,6-dione] came in with a DC50 of over 30 µM.

`O=C1CCC(N2Cc3c(ccc(O[C@H]4CCCC[C@@H]4N4CC(c5ccccc5)C4)c3F)C2=O)C(=O)N1` (single isomer, unassigned) [Compound 66]: the DC50 is over 30 µM.

Take `O=C1CCC(N2Cc3cc(O[C@H]4CCCC[C@@H]4N4CC(c5ccc(F)cc5)C4)ccc3C2=O)C(=O)N1` (single isomer, unassigned) [Compound 50]: the DC50 was over 30 µM.

Turning to `O=C1CCC(N2Cc3c(ccc(O[C@H]4CCCC[C@@H]4N4CC(c5ccccc5)C4)c3F)C2=O)C(=O)N1` (single isomer, unassigned) [Compound 65], the DC50 is over 30 µM.

In turn, `N#Cc1cc(Cl)ccc1C1CN([C@@H]2CCCC[C@@H]2Oc2ccc3c(c2)CN(C2CCC(=O)NC2=O)C3=O)C1` (mixture of isomers) [Compound 100, Rac-5-chloro-2-(1-((cis)-2-((2-(2,6-dioxopiperidin-3-yl)-1-oxoisoindolin-5-yl)oxy)cyclohexyl)azetidin-3-yl)benzonitrile] showed a DC50 of over 30 µM.

The compound `O=C1CCC(N2Cc3cc(O[C@H]4CCCC[C@@H]4N4CC(c5cccc(O)c5)C4)ccc3C2=O)C(=O)N1` (stereo partly drawn) [Compound 134, 3-(5-(((1S,2S)-2-(3-(3-hydroxyphenyl)azetidin-1-yl)cyclohexyl)oxy)-1-oxoisoindolin-2-yl)piperidine-2,6-dione] had a DC50 of over 30 µM.

Compound `O=C1CCC(N2Cc3cc(O[C@H]4CCCC[C@@H]4N4CC(c5cccc(F)c5)C4)ccc3C2=O)C(=O)N1` (stereo partly drawn) [Compound 111, 3-(5-(((1S,2S)-2-(3-(3-fluorophenyl)azetidin-1-yl)cyclohexyl)oxy)-1-oxoisoindolin-2-yl)piperidine-2,6-dione] had a 50% degradation concentration (DC50) of over 30 µM.

`O=C1CCC(N2Cc3cc(O[C@H]4CCCC[C@@H]4N4CC(c5ccccc5C(F)(F)F)C4)ccc3C2=O)C(=O)N1` (stereo partly drawn) [Compound 129, 3-(1-oxo-5-(((1S,2S)-2-(3-(2-(trifluoromethyl)phenyl)azetidin-1-yl)cyclohexyl)oxy)isoindolin-2-yl)piperidine-2,6-dione]: the 50% degradation concentration (DC50) is over 30 µM.

`O=C(O)CC(O)(CC(=O)O)C(=O)O.O=C1CCC(N2Cc3cc(O[C@H]4CCCC[C@@H]4N4CC(c5ccccc5)C4)ccc3C2=O)C(=O)N1` (stereo partly drawn) [Compound 130, 3-(1-oxo-5-(((1S,2S)-2-(3-phenylazetidin-1-yl)cyclohexyl)oxy)isoindolin-2-yl)piperidine-2,6-dione 2-hydroxypropane-1,2,3-tricarboxylate] displayed a DC50 of over 30 µM.
